Experimental data from patent publication US20240335569A1, “FIBROBLAST ACTIVATION PROTEIN INHIBITORS AND USE THEREOF” (3 B PHARMACEUTICALS GMBH, priority 2021, published 2024).
Each block holds one compound with its values, some of them ahead of it.

What was measured:
[1] = target: FAP-expressing human WI-38 fibroblasts (Homo sapiens (Human), UniProt Q12884); assay: FACS binding assay (competitive, Cy5-labeled 3BP-2935)
Protocol: In order to determine binding of compounds according to the present invention to FAP-expressing cells, a competitive FACS binding assay was established. […] Cells were diluted in FACS buffer to a final concentration of 100.000 cells per ml and 200 μl of the cell suspension are transferred to a u-shaped non-binding 96-well plate (Greiner). […] Cell were washed twice with FACS buffer (see above) and resuspended in 200 μl FACS buffer. Cells were analyzed in an Attune NxT flow cytometer (Thermo Fisher Scientific). Median fluorescence intensities (Cy5 channel) were calculated by Attune NxT software and plotted against test compound concentrations. Four parameter logistic (4PL) curve fitting and pIC50 calculations were performed using ActivityBase software.

[2] = target: T1, Human recombinant FAP (Homo sapiens (Human), UniProt Q12884); assay: FAP protease activity assay (human), FRET-based; type: biochemical; conditions: for IC50: read-out: pIC50 (Activity) (converted)
Protocol: (§1) In order to determine the inhibitory activity a FRET-based FAP protease activity assay was established.
Four parameter logistic (4PL) curve fitting and pIC50 calculations were performed using ActivityBase software (IDBS).
Target sequence in this assay (Q12884 26-760): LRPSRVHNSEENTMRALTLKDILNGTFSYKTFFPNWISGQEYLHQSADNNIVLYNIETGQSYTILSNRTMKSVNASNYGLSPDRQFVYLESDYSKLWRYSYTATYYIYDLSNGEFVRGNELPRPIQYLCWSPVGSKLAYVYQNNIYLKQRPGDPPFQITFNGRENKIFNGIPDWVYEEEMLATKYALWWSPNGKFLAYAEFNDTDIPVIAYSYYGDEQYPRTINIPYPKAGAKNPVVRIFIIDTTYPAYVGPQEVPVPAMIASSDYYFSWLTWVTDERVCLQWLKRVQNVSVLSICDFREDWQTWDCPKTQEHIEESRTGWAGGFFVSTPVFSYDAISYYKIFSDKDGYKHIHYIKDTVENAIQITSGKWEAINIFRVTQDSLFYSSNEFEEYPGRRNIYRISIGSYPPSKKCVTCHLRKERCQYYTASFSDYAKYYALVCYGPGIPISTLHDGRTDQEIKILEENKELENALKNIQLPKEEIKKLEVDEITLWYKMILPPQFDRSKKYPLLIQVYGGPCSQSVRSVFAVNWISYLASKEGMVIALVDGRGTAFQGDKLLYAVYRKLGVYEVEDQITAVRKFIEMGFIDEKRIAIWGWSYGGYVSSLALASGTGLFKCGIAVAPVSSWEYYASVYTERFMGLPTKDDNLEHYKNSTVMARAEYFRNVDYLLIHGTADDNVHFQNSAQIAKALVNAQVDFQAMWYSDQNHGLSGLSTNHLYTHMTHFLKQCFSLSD

[3] = target: T1, Human recombinant FAP; assay: Surface plasmon resonance assay (Biacore T200, SCK); type: binding; conditions: for HL [min] (Biacore): SPR dissociation half-life; for Kd / pKD (Biacore): SPR; for Kd: read-out: pKD (Biacore) (converted)
Protocol: Surface plasmon resonance studies were performed using a Biacore™ T200 SPR system (Cytiva, formerly GE Healthcare). Briefly, polarized light is directed towards a gold-labeled sensor surface, and minimum intensity reflected light is detected. The angle of reflected light changes as molecules bind and dissociate. […] Test compounds are contacted with the loaded surface, and a real-time interaction profile with the FAP ligand is recorded in a sensorgram. In real-time, the association and dissociation of a binding interaction is measured, enabling calculation of association and dissociation rate constants and the corresponding affinity constants. Importantly, a background response is generated due to the difference in the refractive indices of the running and sample buffers, as well as unspecific binding of the test compounds to the flow cell surface. This background is measured and subtracted by running the sample on a control flow cell coated with the same density of capture antibody in the absence of immobilized FAP. Furthermore, baseline drift correction of the binding data is performed, which is caused by slow dissociation of the captured FAP from the immobilized antibody. This drift is measured by injecting running buffer through a flow cell with the antibody and FAP immobilized to the sensor surface.
Biacore™ CM5 sensor chips were used. […] A 150 μL aliquot was transferred into plastic vials and placed into the sample rack of the Biacore™ T200 instrument. Amine Coupling Kit Reagent solutions were transferred into plastic vials and placed into the sample rack: 90 μL of 0.4 M 1-ethyl-3-(3-dimethylaminopropyl) carbodiimide (EDC), and 90 μL of 0.1 M N-hydroxysuccinimide (NHS). A 130 μL aliquot of 1 M ethanolamine-HCl, pH 8.5, was transferred into plastic vials and placed into the sample rack. The Biacore™ liquid system was set-up as follows: Separate bottles containing distilled water (1 L), Running Buffer (500 mL), as well as an empty bottle for waste were placed onto the buffer tray. A preinstalled program for immobilization was used, with an immobilization level of 7000 RU. Immobilization was performed at 25° C. The immobilization procedure of anti-FAP antibodies was performed, as described in the Table 4.
Human recombinant FAP was diluted in Running Buffer to a final concentration of 20 μg/mL. A 100 μL aliquot of human FAP-Working-Solution was transferred into plastic vials and placed into a sample rack. A 0.5 mM Compound-Stock-Solution was prepared by dissolving each compound in DMSO. For each test compound, Compound-Stock-Solutions were diluted in Running Buffer (HBST) at 500 nM and further diluted with HBST-DMSO Buffer (0.1% DMSO). SPR binding analyses for binary complexes were performed in SCK mode at 25° C. Following three SCK measurements, a baseline drift was assessed by injecting running buffer through a flow cell, with the antibody and FAP immobilized to the sensor surface.
For each test compound, SPR raw data in the form of resonance units (RU) were plotted as sensorgrams using the Biacore™ T200 control software. The signal from the blank sensorgram was subtracted from that of the test compound sensorgram (blank corrected). The blank corrected sensorgram was corrected for baseline drift by subtracting the sensorgram of a SCK run without the test compound (running buffer only). The association rate (kon), dissociation rate (koff), dissociation constant (KD), and t1/2 were calculated from Blank-normalized SPR data using the 1:1 Langmuir binding model from the Biacore™ T200 evaluation software. Raw data and fit results were imported as text files in IDBS. The pKD value (negative decadic logarithm of dissociation constant) was calculated in the IDBS excel template.
Target sequence in this assay (Q12884 whole entry): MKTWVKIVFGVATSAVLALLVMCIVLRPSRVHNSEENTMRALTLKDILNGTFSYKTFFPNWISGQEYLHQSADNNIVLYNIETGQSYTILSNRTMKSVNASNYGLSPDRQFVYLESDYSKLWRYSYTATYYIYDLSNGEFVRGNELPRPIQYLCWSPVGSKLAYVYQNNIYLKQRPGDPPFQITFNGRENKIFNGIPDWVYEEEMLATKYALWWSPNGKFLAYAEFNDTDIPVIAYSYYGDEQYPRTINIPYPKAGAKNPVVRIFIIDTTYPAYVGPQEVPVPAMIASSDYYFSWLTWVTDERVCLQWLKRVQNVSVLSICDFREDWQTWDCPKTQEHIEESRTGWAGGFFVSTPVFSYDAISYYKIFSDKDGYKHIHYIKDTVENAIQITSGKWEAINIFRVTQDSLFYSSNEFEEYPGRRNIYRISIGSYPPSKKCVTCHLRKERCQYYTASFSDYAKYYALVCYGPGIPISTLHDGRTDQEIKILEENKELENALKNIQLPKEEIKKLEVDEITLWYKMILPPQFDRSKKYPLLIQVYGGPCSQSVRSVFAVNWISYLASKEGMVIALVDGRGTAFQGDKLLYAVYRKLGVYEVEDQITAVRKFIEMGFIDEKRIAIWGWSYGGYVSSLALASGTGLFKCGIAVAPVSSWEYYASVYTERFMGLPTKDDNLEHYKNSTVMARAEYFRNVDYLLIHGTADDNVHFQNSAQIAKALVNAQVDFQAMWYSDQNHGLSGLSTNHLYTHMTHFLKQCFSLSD

[4] = target: Recombinant human DPP4 (Homo sapiens (Human), UniProt P27487); assay: DPP4 protease activity assay; type: biochemical
Sequence of Recombinant human DPP4 (P27487 whole entry): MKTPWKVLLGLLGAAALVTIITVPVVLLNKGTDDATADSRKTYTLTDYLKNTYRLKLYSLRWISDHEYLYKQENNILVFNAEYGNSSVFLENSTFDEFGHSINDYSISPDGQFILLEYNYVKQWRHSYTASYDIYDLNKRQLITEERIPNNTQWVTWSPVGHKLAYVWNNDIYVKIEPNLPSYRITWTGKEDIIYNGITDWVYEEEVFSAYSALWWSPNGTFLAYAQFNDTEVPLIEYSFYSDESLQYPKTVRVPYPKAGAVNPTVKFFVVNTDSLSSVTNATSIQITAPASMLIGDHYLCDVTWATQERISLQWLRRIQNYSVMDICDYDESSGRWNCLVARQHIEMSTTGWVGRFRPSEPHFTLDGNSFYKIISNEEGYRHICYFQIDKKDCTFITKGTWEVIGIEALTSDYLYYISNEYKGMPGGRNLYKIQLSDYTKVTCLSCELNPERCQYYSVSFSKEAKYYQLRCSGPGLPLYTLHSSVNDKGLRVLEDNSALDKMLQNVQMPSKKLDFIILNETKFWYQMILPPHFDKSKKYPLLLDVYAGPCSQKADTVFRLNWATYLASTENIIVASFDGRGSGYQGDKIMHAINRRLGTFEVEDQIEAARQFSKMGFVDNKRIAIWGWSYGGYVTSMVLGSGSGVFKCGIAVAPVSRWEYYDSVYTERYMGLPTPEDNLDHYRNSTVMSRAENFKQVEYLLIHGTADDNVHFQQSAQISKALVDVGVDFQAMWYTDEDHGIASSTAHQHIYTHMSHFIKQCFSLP
Protocol: The PREP activity assay was performed using the FACS buffer (PBS including 1% FBS, Sigma-Aldrich, Cat #D8537). […] The DPP4 activity assay was performed in DPP assay buffer (25 mM Tris, pH 8.0). […] Four parameter logistic (4PL) curve fitting and pIC50 calculations were performed using ActivityBase software.

[5] = test system: HT-29 cells; assay: Stability in the presence of tumor cells (HT-29), FAP IC50 of supernatants; type: in vitro ADME, human; conditions: for pIC50 (incubation in cell medium w/o HT-29) / pIC50 (incubation in the presence of HT-29 cells): 10 μM compound, supernatant tested on recombinant human FAP; for pIC50 (incubation in cell medium w/o HT-29): 24 hours at 37° C. in control wells without cells; for pIC50 (incubation in the presence of HT-29 cells): 24 hours at 37° C. with HT-29 cells
[6] = target: Recombinant mouse FAP (Mus musculus (Mouse), UniProt P97321); assay: FAP protease activity assay (mouse), FRET-based; type: biochemical
Sequence of Recombinant mouse FAP (P97321 whole entry): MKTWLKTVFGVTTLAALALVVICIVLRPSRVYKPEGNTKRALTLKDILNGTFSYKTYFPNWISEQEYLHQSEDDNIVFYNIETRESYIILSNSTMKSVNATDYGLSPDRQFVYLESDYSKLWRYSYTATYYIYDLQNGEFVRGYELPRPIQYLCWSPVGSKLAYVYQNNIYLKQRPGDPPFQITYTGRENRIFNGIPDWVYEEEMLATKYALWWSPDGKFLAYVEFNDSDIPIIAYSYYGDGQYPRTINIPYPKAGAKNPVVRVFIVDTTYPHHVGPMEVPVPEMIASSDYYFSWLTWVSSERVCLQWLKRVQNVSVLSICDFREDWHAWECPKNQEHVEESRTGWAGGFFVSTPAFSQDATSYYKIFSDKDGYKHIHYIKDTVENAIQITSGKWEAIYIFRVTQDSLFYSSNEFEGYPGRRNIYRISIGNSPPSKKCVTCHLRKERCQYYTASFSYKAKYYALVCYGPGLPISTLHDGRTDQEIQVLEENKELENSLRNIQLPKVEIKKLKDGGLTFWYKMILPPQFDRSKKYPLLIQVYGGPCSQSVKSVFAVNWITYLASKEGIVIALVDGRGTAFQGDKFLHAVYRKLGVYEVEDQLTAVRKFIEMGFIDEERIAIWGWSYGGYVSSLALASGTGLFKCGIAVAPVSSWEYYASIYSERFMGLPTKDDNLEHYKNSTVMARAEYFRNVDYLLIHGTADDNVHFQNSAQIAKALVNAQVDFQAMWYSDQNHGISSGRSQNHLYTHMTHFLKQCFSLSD
Protocol: as §1
Four parameter logistic (4PL) curve fitting and pIC50 calculations were performed using ActivityBase software.

[7] = human FAP protease activity, FRET
[8] = recombinant mouse FAP protease activity
[9] = FAP-expressing WI-38 fibroblasts
[10] = recombinant human FAP, FRET protease activity

Sequence of FAP-expressing human WI-38 fibroblasts (Q12884 whole entry): as the sequence (Q12884 whole entry) above

SMILES: O=C(NCC(=O)N1CCC[C@H]1C(=O)CO)c1ccnc2ccccc12 [Compound 3BP-4197, (S)—N-(2-(2-(2-hydroxyacetyl)pyrrolidin-1-yl)-2-oxoethyl)quinoline-4-carboxamide]
IC50 ([1]; WI-38 fibroblasts): 10 nM | IC50 [2, 7]: 3.16 nM | HL [min] (Biacore) [3]: 3.1 min | Kd [3]: 1 nM

SMILES: N#C[C@@H]1CCCN1C(=O)CNC(=O)c1ccnc2ccccc12 [Compound 3BP-2762]
pIC50 (DPP4) [4]: <6 | pIC50 (incubation in cell medium w/o HT-29) [5]: 8.4 | Residual activity after incubation with HT-29 cells for 24 hours (%) [5]: 63%

SMILES: N#C[C@@H]1CC(F)(F)CN1C(=O)CNC(=O)c1ccnc2ccc(-c3ccc(C(=O)NCCN4CCN(C(=O)CN5CCN(CC(=O)O)CCN(CC(=O)O)CCN(CC(=O)O)CC5)CC4)nc3)cc12 [Compound 3BP-4076, (S)-2,2′,2″-(10-(2-(4-(2-(5-(4-(2-(2-cyano-4,4-difluoropyrrolidin-1-yl)-2-oxoethylcarbamoyl)quinolin-6-yl)picolinamido)ethyl)piperazin-1-yl)-2-oxoethyl)-1,4,7,10-tetraazacyclododecane-1,4,7-triyl)triacetic Acid]
IC50 ([1]; WI-38 fibroblasts): 1.26 nM | IC50 [2, 7]: 0.631 nM | HL [min] (Biacore) [3]: >150 min | Kd [3]: < 0.0316 nM

SMILES: Cn1ncnc1C(=O)[C@@H]1CCCN1C(=O)CNC(=O)c1ccnc2ccccc12 [Compound 3BP-3207]
pIC50 (FACS) [1, 9]: <6 | pIC50 (Activity) [2, 10]: 6.5

SMILES: O=C(O)CN1CCN(CC(=O)O)CCN(CC(=O)N2CCN(CCCOc3ccc4nccc(C(=O)NCC(=O)N5CC(F)(F)C[C@H]5C(=O)c5nc6ccccc6o5)c4c3)CC2)CCN(CC(=O)O)CC1 [Compound 3BP-3412]
HL [min] (Biacore) [3]: 57 min | pIC50 (incubation in the presence of HT-29 cells) [5]: 8.6 | Residual activity after incubation with HT-29 cells for 24 hours (%) [5]: >95%

SMILES: CC(C)(C)OC(=O)N1CC[N+]([O-])(CCCOc2ccc3nccc(C(=O)NCC(=O)N4CC(F)(F)C[C@H]4C#N)c3c2)CC1 [Compound 3BP-3577]
pIC50 (FACS) [1, 9]: 8.6 | pIC50 (Activity) [2, 10]: 9

SMILES: CS(=O)(=O)c1ccc(-c2ccc3c(C(=O)NCC(=O)N4CC(F)(F)C[C@H]4C#N)ccnc3c2)cc1 [Compound 3BP-3236]
HL [min] (Biacore) [3]: 37 min

SMILES: CC(C)(C)OC(=O)N1CC[N+]([O-])(CCCOc2ccc3c(c2)c(C(=O)NCC(=O)N2CC(F)(F)C[C@H]2C#N)cc[n+]3[O-])CC1 [Compound 3BP-3578]
pIC50 (FACS) [1, 9]: 8 | pIC50 (Activity) [2, 10]: 8.6

SMILES: N#C[C@@H]1CC(F)(F)CN1C(=O)CNC(=O)c1ccnc2ccccc12 [Compound 3BP-3232]
pIC50 (incubation in the presence of HT-29 cells) [5]: 8.0 | Residual activity after incubation with HT-29 cells for 24 hours (%) [5]: 13%

SMILES: N#C[C@@H]1CC(F)(F)CN1C(=O)CNC(=O)c1ccnc2ccc(-c3ccc(S(=O)(=O)CCCNC(=O)CN4CCN(CC(=O)O)CCN(CC(=O)O)CCN(CC(=O)O)CC4)cc3)cc12 [Compound 3BP-3467]
pKD (Biacore) [3]: >10.5 | HL [min] (Biacore) [3]: >150 min | pIC50 (incubation in cell medium w/o HT-29) [5]: 9.3 | pIC50 (incubation in the presence of HT-29 cells) [5]: 8.4 | Residual activity after incubation with HT-29 cells for 24 hours (%) [5]: 13%

Now from value to compound:

HL [min] (Biacore) [3]: >150 min
SMILES: N#C[C@@H]1CCCN1C(=O)CNC(=O)c1ccnc2ccc(-c3ccc(C(=O)NCCCNC(=O)CN4CCN(CC(=O)O)CCN(CC(=O)O)CCN(CC(=O)O)CC4)cc3)cc12 [Compound 3BP-3785]

pIC50 (FACS) ([1]; WI-38 fibroblasts): 8.8 | pIC50 (Activity) [2, 7]: 9.2 | pIC50 (mouseFAP) [6, 8]: 9.2 | pIC50 (DPP4) [4]: <6
SMILES: CS(=O)(=O)c1ccc(-c2ccc3nccc(C(=O)NCC(=O)N4C[C@@H](F)C[C@H]4C#N)c3c2)cc1 [Compound 3BP-3774]

pIC50 (FACS) [1, 9]: 8.4 | pIC50 (Activity) [2, 10]: 8.8
SMILES: CC(C)(C)OC(=O)N1CCN(CCCOc2ccc3nccc(C(=O)NCC(=O)N4CC(F)(F)C[C@H]4C#N)c3c2)CC1 [Compound 3BP-3580]

HL [min] (Biacore) [3]: >150 min
SMILES: CS(=O)(=O)c1ccc(-c2ccc3nccc(C(=O)NCC(=O)N4CC(F)(F)C[C@H]4C#N)c3c2)c(CO)c1 [Compound 3BP-4084, (S)—N-(2-(2-cyano-4,4-difluoropyrrolidin-1-yl)-2-oxoethyl)-6-(2-(hydroxymethyl)-4-(methylsulfonyl)phenyl)quinoline-4-carboxamide]

pKD (Biacore) [3]: >10.5 | HL [min] (Biacore) [3]: >150 min
SMILES: N#C[C@@H]1CC(F)(F)CN1C(=O)CNC(=O)c1ccnc2ccc(-c3ccc(C(=O)NCCN4CCN(C(=O)CN5CCN(CC(=O)O)CCN(CC(=O)O)CCN(CC(=O)O)CC5)CC4)cc3)cc12 [Compound 3BP-3631]

pKD (Biacore) [3]: >10.5 | HL [min] (Biacore) [3]: >150 min
SMILES: N#C[C@@H]1CC(F)(F)CN1C(=O)CNC(=O)c1ccnc2ccc(-c3ccc(C(=O)NCCCNC(=O)CN4CCN(CC(=O)O)CCN(CC(=O)O)CCN(CC(=O)O)CC4)cc3)cc12 [Compound 3BP-3621]

pIC50 (FACS) ([1]; WI-38 fibroblasts): 7.7 | pIC50 (Activity) [2, 7]: 8.2
SMILES: COc1cccc2c(C(=O)NCC(=O)N3CC(F)(F)C[C@H]3C#N)ccnc12 [Compound 3BP-4085]

pKD (Biacore) [3]: >10.5 | HL [min] (Biacore) [3]: >150 min
SMILES: O=C(O)CN1CCN(CC(=O)O)CCN(CC(=O)NCCCNC(=O)c2ccc(-c3ccc4nccc(C(=O)NCC(=O)N5CCC[C@H]5B(O)O)c4c3)cc2)CCN(CC(=O)O)CC1 [Compound 3BP-4201]

pIC50 (FACS) ([1]; WI-38 fibroblasts): 8.9 | pIC50 (Activity) [2, 7]: 9.3 | pIC50 (mouseFAP) [6, 8]: 8.8
SMILES: Cc1cc2nccc(C(=O)NCC(=O)N3CC(F)(F)C[C@H]3C#N)c2cc1-c1ccc(S(C)(=O)=O)cc1 [Compound 3BP-4026]

pIC50 (FACS) [1, 9]: 8.6 | pIC50 (Activity) [2, 10]: 9.3 | pIC50 (mouseFAP) ([6]; recombinant mouse FAP, FRET protease activity): 9.1
SMILES: N#C[C@@H]1CC(F)(F)CN1C(=O)CNC(=O)c1ccnc2ccc(OCCCN3CCN(C(=O)CN4CCN5CCN6CCN(CC4)CC(=O)[O][Eu]([O]C(=O)C6)[O]C(=O)C5)CC3)cc12 [Compound 3BP-3663]

pIC50 (FACS) ([1]; WI-38 fibroblasts): 7.6 | pIC50 (Activity) [2, 7]: 7.9
SMILES: Cc1cccc2c(C(=O)NCC(=O)N3CC(F)(F)C[C@H]3C#N)ccnc12 [Compound 3BP-4150]

pIC50 (FACS) ([1]; WI-38 fibroblasts): 8.5 | pIC50 (Activity) [2, 7]: 8.9
SMILES: O=C(NCC(=O)N1CCC[C@H]1B(O)O)c1ccnc2ccccc12 [Compound 3BP-4081]

pIC50 (FACS) ([1]; WI-38 fibroblasts): 7.7 | pIC50 (Activity) [2, 7]: 8.5
SMILES: CCOc1cccc2c(C(=O)NCC(=O)N3CC(F)(F)C[C@H]3C#N)ccnc12 [Compound 3BP-4151]

pIC50 (FACS) [1, 9]: 8 | pIC50 (Activity) [2, 10]: 8.6
SMILES: CC(C)(C)OC(=O)N1CCN(CCCOc2ccc3c(c2)c(C(=O)NCC(=O)N2CC(F)(F)C[C@H]2C#N)cc[n+]3[O-])CC1 [Compound 3BP-3579]
